Test results from the NIST ThermoML archive (doi:10.1021/je301301j).
Numbers after ± are expanded uncertainties.

Assay: xn = mol fraction of the nth substance listed
Details: Liquid; for viscosity: Concentric cylinders viscometry; for mass density: Vibrating tube method

C=CCCCC [hex-1-ene] + CCCCO
Details	mass density [kg/m3]	viscosity [mPa·s]
303.15 K, 100 kPa, x2 = 0.5018	–	0.565 ± 0.013
303.15 K, 100 kPa, x2 = 0.5997	–	0.703 ± 0.015
303.15 K, 100 kPa, x2 = 0.7002	–	0.938 ± 0.02
303.15 K, 100 kPa, x2 = 0.7999	–	1.24 ± 0.026
303.15 K, 100 kPa, x2 = 0.9	–	1.667 ± 0.035
313.15 K, 100 kPa, x1 = 0.1001	776.5 ± 0.7	–
313.15 K, 100 kPa, x1 = 0.3999	729.5 ± 0.7	–
313.15 K, 100 kPa, x1 = 0.5018	716 ± 0.7	–
313.15 K, 100 kPa, x1 = 0.5997	702.9 ± 0.7	–
313.15 K, 100 kPa, x1 = 0.9	662.7 ± 0.7	–
313.15 K, 100 kPa, x1 = 1	653.8 ± 0.7	–
313.15 K, 100 kPa, x2 = 0	–	0.236 ± 0.006
313.15 K, 100 kPa, x2 = 0.1001	–	0.255 ± 0.007
313.15 K, 100 kPa, x2 = 0.2	–	0.285 ± 0.007
313.15 K, 100 kPa, x2 = 0.3002	–	0.322 ± 0.008
313.15 K, 100 kPa, x2 = 0.3999	–	0.386 ± 0.009
313.15 K, 100 kPa, x2 = 0.5018	–	0.475 ± 0.011
313.15 K, 100 kPa, x2 = 0.5997	–	0.595 ± 0.013
313.15 K, 100 kPa, x2 = 0.7002	–	0.763 ± 0.017
313.15 K, 100 kPa, x2 = 0.7999	–	0.997 ± 0.021
313.15 K, 100 kPa, x2 = 0.9	–	1.327 ± 0.028
313.15 K, 1000 kPa, x1 = 0.1001	777.2 ± 0.7	–
313.15 K, 1000 kPa, x1 = 0.3999	730.4 ± 0.7	–
313.15 K, 1000 kPa, x1 = 0.5018	716.9 ± 0.7	–
313.15 K, 1000 kPa, x1 = 0.5997	703.9 ± 0.7	–
313.15 K, 1000 kPa, x1 = 0.9	663.9 ± 0.7	–
313.15 K, 1000 kPa, x1 = 1	654.9 ± 0.7	–
313.15 K, 2000 kPa, x1 = 0.1001	778.1 ± 0.7	–
313.15 K, 2000 kPa, x1 = 0.3999	731.4 ± 0.7	–
313.15 K, 2000 kPa, x1 = 0.5018	718 ± 0.7	–
313.15 K, 2000 kPa, x1 = 0.5997	705 ± 0.7	–
313.15 K, 2000 kPa, x1 = 0.9	665.1 ± 0.7	–
313.15 K, 2000 kPa, x1 = 1	656.2 ± 0.7	–
313.15 K, 5000 kPa, x1 = 0.1001	780.6 ± 0.7	–
313.15 K, 5000 kPa, x1 = 0.3999	734.3 ± 0.7	–
313.15 K, 5000 kPa, x1 = 0.5018	721.1 ± 0.7	–
313.15 K, 5000 kPa, x1 = 0.5997	708.2 ± 0.7	–
313.15 K, 5000 kPa, x1 = 0.9	668.7 ± 0.7	–
313.15 K, 5000 kPa, x1 = 1	659.9 ± 0.7	–
313.15 K, 10000 kPa, x1 = 0.1001	784.6 ± 0.7	–
313.15 K, 10000 kPa, x1 = 0.3999	739 ± 0.7	–
313.15 K, 10000 kPa, x1 = 0.5018	725.9 ± 0.7	–
313.15 K, 10000 kPa, x1 = 0.5997	713.2 ± 0.7	–
313.15 K, 10000 kPa, x1 = 0.9	674.2 ± 0.8	–
313.15 K, 10000 kPa, x1 = 1	665.5 ± 0.8	–
313.15 K, 15000 kPa, x1 = 0.1001	788.4 ± 0.7	–
313.15 K, 15000 kPa, x1 = 0.3999	743.3 ± 0.8	–
313.15 K, 15000 kPa, x1 = 0.5018	730.5 ± 0.8	–
313.15 K, 15000 kPa, x1 = 0.5997	718 ± 0.8	–
313.15 K, 15000 kPa, x1 = 0.9	679.5 ± 0.8	–
313.15 K, 15000 kPa, x1 = 1	670.8 ± 0.8	–
313.15 K, 20000 kPa, x1 = 0.1001	792.1 ± 0.8	–
313.15 K, 20000 kPa, x1 = 0.3999	747.5 ± 0.8	–
313.15 K, 20000 kPa, x1 = 0.5018	734.8 ± 0.8	–
313.15 K, 20000 kPa, x1 = 0.5997	722.4 ± 0.8	–
313.15 K, 20000 kPa, x1 = 0.9	684.2 ± 0.8	–
313.15 K, 20000 kPa, x1 = 1	675.7 ± 0.8	–
313.15 K, 30000 kPa, x1 = 0.1001	799 ± 0.8	–
313.15 K, 30000 kPa, x1 = 0.3999	755.2 ± 0.8	–
313.15 K, 30000 kPa, x1 = 0.5018	742.7 ± 0.8	–
313.15 K, 30000 kPa, x1 = 0.5997	730.6 ± 0.8	–
313.15 K, 30000 kPa, x1 = 0.9	693.1 ± 0.9	–
313.15 K, 30000 kPa, x1 = 1	684.6 ± 0.9	–
313.15 K, 40000 kPa, x1 = 0.1001	805.3 ± 0.8	–
313.15 K, 40000 kPa, x1 = 0.3999	762.2 ± 0.8	–
313.15 K, 40000 kPa, x1 = 0.5018	749.9 ± 0.9	–
313.15 K, 40000 kPa, x1 = 0.5997	738 ± 0.9	–
313.15 K, 40000 kPa, x1 = 0.9	700.9 ± 0.9	–
313.15 K, 40000 kPa, x1 = 1	692.6 ± 0.9	–
